Measurements published in ChEMBL document CHEMBL6134788, “Development of naphthalimide hydrazide derivatives as potent antibacterial agents against carbapenem-resistant A. baumannii” (RSC Med Chem, 2024).
In brackets after ≈: the same amount, converted by molar mass.

What was measured:
Assay type in all cases: functional
Conditions in all cases: time 16-18 hrs, read-out: MIC100
Acinetobacter baumannii = test: Antibacterial activity against carbapenem-resistant Acinetobacter baumannii BAA 1605 assessed as inhibition of bacterial growth incubated for 16 to 18 hrs by CLSI protocol based method
Escherichia coli = test: Antibacterial activity against Escherichia coli ATCC 25922 assessed as inhibition of bacterial growth incubated for 16 to 18 hrs by CLSI protocol based method
Staphylococcus aureus = test: Antibacterial activity against Staphylococcus aureus ATCC 29213 assessed as inhibition of bacterial growth incubated for 16 to 18 hrs by CLSI protocol based method
Klebsiella pneumoniae = test: Antibacterial activity against Klebsiella pneumoniae BAA 1705 assessed as inhibition of bacterial growth incubated for 16 to 18 hrs by CLSI protocol based method
Pseudomonas aeruginosa = test: Antibacterial activity against Pseudomonas aeruginosa ATCC 27853 assessed as inhibition of bacterial growth incubated for 16 to 18 hrs by CLSI protocol based method

O=C(CCN1C(=O)c2cccc3cccc(c23)C1=O)NNc1ccc([N+](=O)[O-])cc1
MIC (Acinetobacter baumannii): 4 µg/mL (≈ 9.89 µM)
MIC (Escherichia coli): > 64 µg/mL
MIC (Staphylococcus aureus): > 64 µg/mL
MIC (Klebsiella pneumoniae): > 64 µg/mL
MIC (Pseudomonas aeruginosa): > 64 µg/mL

N#Cc1ccc(NNC(=O)[C@@H](Cc2ccccc2)N2C(=O)c3cccc4cccc(c34)C2=O)cc1
MIC (Acinetobacter baumannii): 16 µg/mL (≈ 34.7 µM)
MIC (Escherichia coli): > 64 µg/mL
MIC (Staphylococcus aureus): > 64 µg/mL
MIC (Klebsiella pneumoniae): > 64 µg/mL
MIC (Pseudomonas aeruginosa): > 64 µg/mL

O=C(CCN1C(=O)c2cccc3cccc(c23)C1=O)NNc1ccccc1Cl
MIC (Acinetobacter baumannii): > 64 µg/mL
MIC (Escherichia coli): > 64 µg/mL
MIC (Staphylococcus aureus): > 64 µg/mL
MIC (Klebsiella pneumoniae): > 64 µg/mL
MIC (Pseudomonas aeruginosa): > 64 µg/mL

NC[C@H]1O[C@H](O[C@H]2[C@H](O)[C@@H](O[C@H]3O[C@H](CO)[C@@H](O)[C@H](N)[C@H]3O)[C@H](N)C[C@@H]2N)[C@H](N)C[C@@H]1O [TOBRAMYCIN]
MIC (Acinetobacter baumannii): 4 µg/mL (≈ 8.56 µM)

N#Cc1ccc(NNC(=O)CCN2C(=O)c3cccc4c(Br)ccc(c34)C2=O)cc1
MIC (Acinetobacter baumannii): 4 µg/mL (≈ 8.63 µM)
MIC (Escherichia coli): > 64 µg/mL
MIC (Staphylococcus aureus): > 64 µg/mL
MIC (Klebsiella pneumoniae): > 64 µg/mL
MIC (Pseudomonas aeruginosa): > 64 µg/mL

CO[C@H]1/C=C/O[C@@]2(C)Oc3c(C)c(O)c4c(O)c(c(/C=N/N5CCN(C)CC5)c(O)c4c3C2=O)NC(=O)/C(C)=C\C=C\[C@H](C)[C@H](O)[C@@H](C)[C@@H](O)[C@@H](C)[C@H](OC(C)=O)[C@@H]1C [RIFAMPIN]
MIC (Acinetobacter baumannii): 4 µg/mL (≈ 4.86 µM)

N#Cc1ccc(NNC(=O)CCCN2C(=O)c3cccc4cccc(c34)C2=O)cc1
MIC (Acinetobacter baumannii): 2 µg/mL (≈ 5.02 µM)
MIC (Escherichia coli): > 64 µg/mL
MIC (Staphylococcus aureus): > 64 µg/mL
MIC (Klebsiella pneumoniae): > 64 µg/mL
MIC (Pseudomonas aeruginosa): > 64 µg/mL

N#Cc1ccc(NNC(=O)CCCCCN2C(=O)c3cccc4cccc(c34)C2=O)cc1
MIC (Acinetobacter baumannii): > 64 µg/mL
MIC (Escherichia coli): > 64 µg/mL
MIC (Staphylococcus aureus): > 64 µg/mL
MIC (Klebsiella pneumoniae): > 64 µg/mL
MIC (Pseudomonas aeruginosa): > 64 µg/mL

O=C(CCN1C(=O)c2cccc3cccc(c23)C1=O)NNc1cc(Cl)cc(Cl)c1
MIC (Acinetobacter baumannii): > 64 µg/mL
MIC (Escherichia coli): > 64 µg/mL
MIC (Staphylococcus aureus): > 64 µg/mL
MIC (Klebsiella pneumoniae): > 64 µg/mL
MIC (Pseudomonas aeruginosa): > 64 µg/mL

O=C(NNc1ccccc1)[C@@H](Cc1ccccc1)N1C(=O)c2cccc3cccc(c23)C1=O
MIC (Acinetobacter baumannii): 8 µg/mL (≈ 18.4 µM)
MIC (Escherichia coli): > 64 µg/mL
MIC (Staphylococcus aureus): > 64 µg/mL
MIC (Klebsiella pneumoniae): > 64 µg/mL
MIC (Pseudomonas aeruginosa): > 64 µg/mL

O=C(NNc1ccc(Br)cc1)[C@@H](Cc1ccccc1)N1C(=O)c2cccc3cccc(c23)C1=O
MIC (Acinetobacter baumannii): 8 µg/mL (≈ 15.6 µM)
MIC (Escherichia coli): > 64 µg/mL
MIC (Staphylococcus aureus): > 64 µg/mL
MIC (Klebsiella pneumoniae): > 64 µg/mL
MIC (Pseudomonas aeruginosa): > 64 µg/mL

Cc1ccc(NNC(=O)CCN2C(=O)c3cccc4cccc(c34)C2=O)c(C)c1
MIC (Acinetobacter baumannii): > 64 µg/mL
MIC (Escherichia coli): > 64 µg/mL
MIC (Staphylococcus aureus): > 64 µg/mL
MIC (Klebsiella pneumoniae): > 64 µg/mL
MIC (Pseudomonas aeruginosa): > 64 µg/mL

NCC[C@H](O)C(=O)N[C@@H]1C[C@H](N)[C@@H](O[C@H]2O[C@H](CN)[C@@H](O)[C@H](O)[C@H]2O)[C@H](O)[C@H]1O[C@H]1O[C@H](CO)[C@@H](O)[C@H](N)[C@H]1O [AMIKACIN]
MIC (Acinetobacter baumannii): 4 µg/mL (≈ 6.83 µM)

O=C(CCN1C(=O)c2cccc3cccc(c23)C1=O)NNc1cccc(Br)c1
MIC (Acinetobacter baumannii): > 64 µg/mL
MIC (Escherichia coli): > 64 µg/mL
MIC (Staphylococcus aureus): > 64 µg/mL
MIC (Klebsiella pneumoniae): > 64 µg/mL
MIC (Pseudomonas aeruginosa): > 64 µg/mL

O=C(CCN1C(=O)c2cccc3c(Br)ccc(c23)C1=O)NNc1ccc(Cl)cc1
MIC (Acinetobacter baumannii): 4 µg/mL (≈ 8.46 µM)
MIC (Escherichia coli): > 64 µg/mL
MIC (Staphylococcus aureus): > 64 µg/mL
MIC (Klebsiella pneumoniae): > 64 µg/mL
MIC (Pseudomonas aeruginosa): > 64 µg/mL

Cc1ccc(NNC(=O)CCN2C(=O)c3cccc4cccc(c34)C2=O)cc1
MIC (Acinetobacter baumannii): 4 µg/mL (≈ 10.7 µM)
MIC (Escherichia coli): > 64 µg/mL
MIC (Staphylococcus aureus): > 64 µg/mL
MIC (Klebsiella pneumoniae): > 64 µg/mL
MIC (Pseudomonas aeruginosa): > 64 µg/mL

O=C(CCCN1C(=O)c2cccc3cccc(c23)C1=O)NNc1ccccc1
MIC (Acinetobacter baumannii): 4 µg/mL (≈ 10.7 µM)
MIC (Escherichia coli): > 64 µg/mL
MIC (Staphylococcus aureus): > 64 µg/mL
MIC (Klebsiella pneumoniae): > 64 µg/mL
MIC (Pseudomonas aeruginosa): > 64 µg/mL

O=C(CCN1C(=O)c2cccc3cccc(c23)C1=O)NNc1ccccc1Br
MIC (Acinetobacter baumannii): > 64 µg/mL
MIC (Escherichia coli): > 64 µg/mL
MIC (Staphylococcus aureus): > 64 µg/mL
MIC (Klebsiella pneumoniae): > 64 µg/mL
MIC (Pseudomonas aeruginosa): > 64 µg/mL

O=C(CCN1C(=O)c2cccc3c(Br)ccc(c23)C1=O)NNc1ccc(Br)cc1
MIC (Acinetobacter baumannii): 4 µg/mL (≈ 7.73 µM)
MIC (Escherichia coli): > 64 µg/mL
MIC (Staphylococcus aureus): > 64 µg/mL
MIC (Klebsiella pneumoniae): > 64 µg/mL
MIC (Pseudomonas aeruginosa): > 64 µg/mL

O=C(CCN1C(=O)c2cccc3cccc(c23)C1=O)NNc1ccc(Cl)cc1Cl
MIC (Acinetobacter baumannii): > 64 µg/mL
MIC (Escherichia coli): > 64 µg/mL
MIC (Staphylococcus aureus): > 64 µg/mL
MIC (Klebsiella pneumoniae): > 64 µg/mL
MIC (Pseudomonas aeruginosa): > 64 µg/mL

O=C(CCN1C(=O)c2cccc3cccc(c23)C1=O)NNc1ccccc1
MIC (Acinetobacter baumannii): 8 µg/mL (≈ 22.3 µM)
MIC (Escherichia coli): > 64 µg/mL
MIC (Staphylococcus aureus): > 64 µg/mL
MIC (Klebsiella pneumoniae): > 64 µg/mL
MIC (Pseudomonas aeruginosa): > 64 µg/mL

O=C(CCN1C(=O)c2cccc3cccc(c23)C1=O)NNc1cccc(F)c1
MIC (Acinetobacter baumannii): 1 µg/mL (≈ 2.65 µM)
MIC (Escherichia coli): > 64 µg/mL
MIC (Staphylococcus aureus): > 64 µg/mL
MIC (Klebsiella pneumoniae): > 64 µg/mL
MIC (Pseudomonas aeruginosa): > 64 µg/mL

O=C(NNc1ccc(Cl)cc1)[C@@H](Cc1ccccc1)N1C(=O)c2cccc3cccc(c23)C1=O
MIC (Acinetobacter baumannii): 4 µg/mL (≈ 8.51 µM)
MIC (Escherichia coli): > 64 µg/mL
MIC (Staphylococcus aureus): > 64 µg/mL
MIC (Klebsiella pneumoniae): > 64 µg/mL
MIC (Pseudomonas aeruginosa): > 64 µg/mL

N#Cc1ccc(NNC(=O)CN2C(=O)c3cccc4cccc(c34)C2=O)cc1
MIC (Acinetobacter baumannii): 4 µg/mL (≈ 10.8 µM)
MIC (Escherichia coli): > 64 µg/mL
MIC (Staphylococcus aureus): > 64 µg/mL
MIC (Klebsiella pneumoniae): > 64 µg/mL
MIC (Pseudomonas aeruginosa): > 64 µg/mL

O=C(CCN1C(=O)c2cccc3cccc(c23)C1=O)NNc1cc(F)cc(F)c1
MIC (Acinetobacter baumannii): > 64 µg/mL
MIC (Escherichia coli): > 64 µg/mL
MIC (Staphylococcus aureus): > 64 µg/mL
MIC (Klebsiella pneumoniae): > 64 µg/mL
MIC (Pseudomonas aeruginosa): > 64 µg/mL

O=C(CCCCCN1C(=O)c2cccc3cccc(c23)C1=O)NNc1ccccc1
MIC (Acinetobacter baumannii): 8 µg/mL (≈ 19.9 µM)
MIC (Escherichia coli): > 64 µg/mL
MIC (Staphylococcus aureus): > 64 µg/mL
MIC (Klebsiella pneumoniae): > 64 µg/mL
MIC (Pseudomonas aeruginosa): > 64 µg/mL

COc1ccc(NNC(=O)CCN2C(=O)c3cccc4cccc(c34)C2=O)cc1
MIC (Acinetobacter baumannii): 4 µg/mL (≈ 10.3 µM)
MIC (Escherichia coli): > 64 µg/mL
MIC (Staphylococcus aureus): > 64 µg/mL
MIC (Klebsiella pneumoniae): > 64 µg/mL
MIC (Pseudomonas aeruginosa): > 64 µg/mL
